US8859569B2, “Substituted annellated pyrimidines and use thereof” (Bayer Pharma Aktiengesellschaft, priority 2011, dated 2014)

Experiments:
aorta rings = assay: Vessel-relaxing action in vitro (aorta rings, phenylephrine contraction); conditions: concentration required to reduce phenylephrine-induced contraction of rabbit aorta rings by 50%
Description: B-1. Vessel-relaxing Action in vitro
Rabbits are stunned with a blow on the back of the neck and exsanguinated. The aorta is removed, freed from adhering tissue, separated into rings with a width of 1.5 mm, and placed individually, with preloading, in 5-ml organ baths with carbogen-gassed Krebs-Henseleit solution at 37° C. with the following composition (mM in each case): sodium chloride: 119; potassium chloride: 4.8; calcium chloride dihydrate: 1; magnesium sulphate heptahydrate: 1.4; potassium dihydrogen phosphate: 1.2; sodium hydrogen carbonate: 25; glucose: 10. The contraction force is recorded with Statham UC2 cells, amplified and digitized via an A/D converter (DAS-1802 HC, Keithley Instruments Munich) and recorded in parallel on a continuous-line recorder. To produce contraction, phenylephrine is added to the bath cumulatively in increasing concentration. After several control cycles, the test substance is added in increasing dosage in each subsequent pass and the level of contraction is compared with the level of contraction reached in the immediately preceding pass. This is used for calculating the concentration that is required to reduce the level of the control value by 50% (IC50 value). The standard application volume is 5 μl, and the proportion of DMSO in the bath solution corresponds to 0.1%.

[1] = target: T1, recombinant guanylate cyclase reporter cell line (Rattus norvegicus, UniProt P19686+P20595); assay: Action on recombinant guanylate cyclase reporter cell line; format: cell-based
T1 construct: expressed in transfected cells
T1 sequence (P20595 1-619): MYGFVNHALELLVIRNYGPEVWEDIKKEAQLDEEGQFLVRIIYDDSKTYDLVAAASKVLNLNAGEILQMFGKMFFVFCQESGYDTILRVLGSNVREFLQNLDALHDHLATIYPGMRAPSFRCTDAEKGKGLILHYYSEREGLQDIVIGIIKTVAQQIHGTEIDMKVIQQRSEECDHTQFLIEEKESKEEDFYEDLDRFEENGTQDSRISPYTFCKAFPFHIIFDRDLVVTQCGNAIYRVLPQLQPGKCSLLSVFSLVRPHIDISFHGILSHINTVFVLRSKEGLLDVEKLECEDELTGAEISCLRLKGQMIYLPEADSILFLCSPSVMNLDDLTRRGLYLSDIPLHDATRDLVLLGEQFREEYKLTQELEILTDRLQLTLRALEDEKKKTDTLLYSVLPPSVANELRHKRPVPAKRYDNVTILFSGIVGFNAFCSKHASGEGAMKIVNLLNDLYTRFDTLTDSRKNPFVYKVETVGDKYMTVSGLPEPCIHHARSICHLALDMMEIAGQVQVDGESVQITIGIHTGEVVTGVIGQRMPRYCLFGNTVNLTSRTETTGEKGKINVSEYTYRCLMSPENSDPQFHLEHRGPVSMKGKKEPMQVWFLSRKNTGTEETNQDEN
T1 sequence (P19686 1-690): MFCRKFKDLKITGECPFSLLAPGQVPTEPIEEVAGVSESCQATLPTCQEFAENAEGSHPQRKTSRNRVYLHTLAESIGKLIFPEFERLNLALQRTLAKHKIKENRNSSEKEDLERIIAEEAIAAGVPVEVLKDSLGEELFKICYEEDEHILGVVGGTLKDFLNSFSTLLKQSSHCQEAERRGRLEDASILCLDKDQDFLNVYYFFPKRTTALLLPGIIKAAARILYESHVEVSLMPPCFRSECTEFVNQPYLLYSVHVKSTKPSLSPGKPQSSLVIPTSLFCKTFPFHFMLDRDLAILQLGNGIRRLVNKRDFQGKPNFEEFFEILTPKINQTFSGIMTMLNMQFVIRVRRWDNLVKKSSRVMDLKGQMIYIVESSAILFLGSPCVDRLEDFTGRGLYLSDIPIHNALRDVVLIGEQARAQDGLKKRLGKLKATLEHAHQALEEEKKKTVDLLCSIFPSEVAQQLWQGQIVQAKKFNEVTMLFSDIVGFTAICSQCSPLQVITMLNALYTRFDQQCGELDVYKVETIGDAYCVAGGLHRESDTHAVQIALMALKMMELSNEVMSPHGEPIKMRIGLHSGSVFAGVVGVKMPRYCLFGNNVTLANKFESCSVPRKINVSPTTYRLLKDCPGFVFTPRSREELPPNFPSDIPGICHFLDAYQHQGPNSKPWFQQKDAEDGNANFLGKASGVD
Description: B-2. Action on Recombinant Guanylate Cyclase Reporter Cell Line
The cellular action of the compounds according to the invention is determined on a recombinant guanylate cyclase reporter cell line, as described in F. Wunder et al., Anal. Biochem. 339, 104-112 (2005).

[2] = target: T2, human phosphodiesterase 5 (PDE-5) (Homo sapiens, UniProt O76074); assay: Inhibition of human phosphodiesterase 5 (PDE-5), SPA assay; format: biochemical; conditions: PDE-5 preparation from human platelets, [8-3H]cGMP substrate
T2 construct: PDE-5 preparations are obtained from human platelets by lysis; from tissue; host or cells: human platelets
Outline: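 Scintillation proximity read-out with yttrium beads after 60 min room-temperature hydrolysis of 0.025 μCi [8-3H]cGMP, pH 7.5 Tris/MgCl2/EDTA buffer. Enzyme is a human platelet PDE-5 fraction, diluted to keep substrate turnover below 70%. Test concentrations 4 μM–0.0018 μM final; IC50 from inhibition curves.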

| Structure (SMILES) | IC50 (aorta rings; Oryctolagus cuniculus) [nM] | MEC (minimal effective concentration) [1] [μm] | IC50 [2] [nM] | IC50 (aorta rings) [nM] |
| --- | --- | --- | --- | --- |
| CC1(C)C(=O)Nc2nc(-c3nn(Cc4ccccc4F)c4ncccc34)nc(N3CCC(N)C3)c21 (racemic) [Example 106, 4-(3-Aminopyrrolidin-1-yl)-2-[1-(2-fluorobenzyl)-1H-pyrazolo[3,4-b]pyridin-3-yl]-5,5-dimethyl-5,7-dihydro-6H-pyrrolo[2,3-d]pyrimidin-6-one] | 1450 | 1 | 12 | – |
| CC1(C)C(=O)Nc2nc(-c3nn(Cc4ccccc4F)c4ncc(F)cc34)nc(NCC(O)C(F)(F)F)c21 (single isomer, unassigned) [Example 96-1, 2-[5-Fluoro-1-(2-fluorobenzyl)-1H-pyrazolo[3,4-b]pyridin-3-yl]-5,5-dimethyl-4-[(3,3,3-trifluoro-2-hydroxypropyl)amino]-5,7-dihydro-6H-pyrrolo[2,3-d]pyrimidin-6-one] | – | 0.1 | 150 | 1470 |
| CC1(C)C(=O)Nc2nc(-c3nn(Cc4ccccc4F)c4ncc(F)cc34)nc(NCC(O)C(F)(F)F)c21 (single isomer, unassigned) [Example 96-2, 2-[5-Fluoro-1-(2-fluorobenzyl)-1H-pyrazolo[3,4-b]pyridin-3-yl]-5,5-dimethyl-4-[(3,3,3-trifluoro-2-hydroxypropyl)amino]-5,7-dihydro-6H-pyrrolo[2,3-d]pyrimidin-6-one] | – | 0.01 | 26 | 601 |
| COc1nc(-c2nn(Cc3ccccc3F)c3ncccc23)nc2c1C(C)(C)C(=O)N2 [Example 1, 2-[1-(2-Fluorobenzyl)-1H-pyrazolo[3,4-b]pyridin-3-yl]-4-methoxy-5,5-dimethyl-5,7-dihydro-6H-pyrrolo[2,3-d]pyrimidin-6-one] | 114 | 0.1 | 140 | – |
| CC1(C)C(=O)Nc2nc(-c3nn(Cc4ccccc4F)c4ncc(F)cc34)nc(NCCO)c21 [Example 2, 2-[5-Fluoro-1-(2-fluorobenzyl)-1H-pyrazolo[3,4-b]pyridin-3-yl]-4-[(2-hydroxyethyl)amino]-5,5-dimethyl-5,7-dihydro-6H-pyrrolo[2,3-d]pyrimidin-6-one] | 54 | 0.3 | 8 | – |
| CC(C)(N)CNc1nc(-c2nn(Cc3ccccc3F)c3ncc(F)cc23)nc2c1C(C)(C)C(=O)N2 [Example 3, 4-[(2-Amino-2-methylpropyl)amino]-2-[5-fluoro-1-(2-fluorobenzyl)-1H-pyrazolo[3,4-b]pyridin-3-yl]-5,5-dimethyl-5,7-dihydro-6H-pyrrolo[2,3-d]pyrimidin-6-one] | 469 | 3.0 | 46 | – |
| CC(C)(O)CNc1nc(-c2nn(Cc3ccccc3F)c3ncc(F)cc23)nc2c1C(C)(C)C(=O)N2 [Example 4, 2-[5-Fluoro-1-(2-fluorobenzyl)-1H-pyrazolo[3,4-b]pyridin-3-yl]-4-[(2-hydroxy-2-methylpropyl)amino]-5,5-dimethyl-5,7-dihydro-6H-pyrrolo[2,3-d]pyrimidin-6-one] | 62 | 0.1 | 6 | – |
| CC1(C)C(=O)Nc2nc(-c3nn(Cc4ccccc4F)c4ncc(F)cc34)nc(NCCC(F)(F)F)c21 [Example 5, 2-[5-Fluoro-1-(2-fluorobenzyl)-1H-pyrazolo[3,4-b]pyridin-3-yl]-5,5-dimethyl-4-[(3,3,3-trifluoropropyl)amino]-5,7-dihydro-6H-pyrrolo[2,3-d]pyrimidin-6-one] | 285 | 0.03 | 130 | – |
| CC1(C)C(=O)Nc2nc(-c3nn(Cc4ccccc4F)c4ncc(F)cc34)nc(NCC(N)C(F)(F)F)c21 (centres unmarked) [Example 6, 4-[(2-Amino-3,3,3-trifluoropropyl)amino]-2-[5-fluoro-1-(2-fluorobenzyl)-1H-pyrazolo[3,4-b]pyridin-3-yl]-5,5-dimethyl-5,7-dihydro-6H-pyrrolo[2,3-d]pyrimidin-6-one] | 680 | – | 120 | – |
| CC1(C)C(=O)Nc2nc(-c3nn(Cc4ccccc4F)c4ncc(F)cc34)nc(NCC(F)F)c21 [Example 7, 4-[(2,2-Difluoroethyl)amino]-2-[5-fluoro-1-(2-fluorobenzyl)-1H-pyrazolo[3,4-b]pyridin-3-yl]-5,5-dimethyl-5,7-dihydro-6H-pyrrolo[2,3-d]pyrimidin-6-one] | 200 | 0.1 | 110 | – |
| CC1(C)C(=O)Nc2nc(-c3nn(Cc4ccccc4F)c4ncc(F)cc34)nc(N3CC(F)C3)c21 [Example 8, 4-(3-Fluoroazetidin-1-yl)-2-[5-fluoro-1-(2-fluorobenzyl)-1H-pyrazolo[3,4-b]pyridin-3-yl]-5,5-dimethyl-5,7-dihydro-6H-pyrrolo[2,3-d]pyrimidin-6-one] | 309 | 0.3 | 400 | – |
| CC1(C)C(=O)Nc2nc(-c3nn(Cc4ccccc4F)c4ncc(F)cc34)nc(NC(C3CC3)C3CC3)c21 [Example 9, 4-[(Dicyclopropylmethyl)amino]-2-[5-fluoro-1-(2-fluorobenzyl)-1H-pyrazolo[3,4-b]pyridin-3-yl]-5,5-dimethyl-5,7-dihydro-6H-pyrrolo[2,3-d]pyrimidin-6-one] | 21000 | 0.1 | 230 | – |
| CC1(C)C(=O)Nc2nc(-c3nn(Cc4ccccc4F)c4ncccc34)nc(Nc3ccccc3)c21 [Example 87, 2-[1-(2-fluorobenzyl)-1H-pyrazolo[3,4-b]pyridin-3-yl]-5,5-dimethyl-4-(phenylamino)-5,7-dihydro-6H-pyrrolo[2,3-d]pyrimidin-6-one] | – | 0.03 | 210 | – |
| CC1(C)C(=O)Nc2nc(-c3nn(Cc4cccc(F)c4F)c4ncc(F)cc34)nc(OCCC(F)(F)F)c21 [Example 110, 2-[1-(2,3-Difluorobenzyl)-5-fluoro-1H-pyrazolo[3,4-b]pyridin-3-yl]-5,5-dimethyl-4-(3,3,3-trifluoropropoxy)-5,7-dihydro-6H-pyrrolo[2,3-d]pyrimidin-6-one] | 10000 | – | 840 | – |
| CC1(C)C(=O)Nc2nc(-c3nn(Cc4cccc(F)c4F)c4ncc(F)cc34)nc(O)c21 [Example 116, 2-[1-(2,3-Difluorobenzyl)-5-fluoro-1H-pyrazolo[3,4-b]pyridin-3-yl]-4-hydroxy-5,5-dimethyl-5,7-dihydro-6H-pyrrolo[2,3-d]pyrimidin-6-one] | – | 0.03 | 83 | – |
